In patent US7700619B2, “2-methoxymethyl-3-(3,4-dichlorophenyl)-8-azabicyclo[3.2.1]octane tartrate salts” (Neurosearch A/S, priority 2003, dated 2010):

Assay: Physical stability of the polymorphic form on repeated preparation
Format: physicochemical
Conditions: successive preparations of Form IV turned out as mixtures of Form IV and Form III
Experimental: The form was prepared by suspending a freshly prepared Form II in water free ethanol. Separation of the suspended matter was conducted after 24 hours and subsequent drying under vacuum.
Form IV can also be obtained from suspension of Form III by the same procedure as described using Form II.
Successive preparations of Form IV turned out as mixtures of Form IV and Form III, indicating difficulties in producing Form IV

COC[C@@H]1[C@@H](c2ccc(Cl)c(Cl)c2)C[C@@H]2CC[C@H]1N2.O=C(O)C(O)C(O)C(=O)O [Form IV, (1R,2R,3S,5S)-2-methoxymethyl-3-(3,4-dichlorophenyl)-8-azabicyclo[3.2.1]octane L-tartrate anhydrate (Form IV)]
physical stability of the crystal form: physically metastable
